SMILES strings stand for the structures. Several values for one entry are separate records, joined by “and”; a condition that tells them apart may be missing. Identical values can stand only once.

The record followed here is the Deep4Chem optical property database.

The nature of the data set: solvent given as SMILES.
Setting [1] is: in O=P(c1ccccc1)(c1ccccc1)c1ccccc1Oc1ccccc1P(=O)(c1ccccc1)c1ccccc1.

As to `COC(=O)[C@@]12N=N[C@@H](C3C[C@H]31)[C@@H]1C[C@@H]12` (some centres not stated), the fluorescence lifetime (in CC#N) was 9.2 ns.
On to `CC(C)c1cc(C(C)C)c(B2c3cc(N4c5ccccc5Oc5ccccc54)ccc3N(c3ccccc3)c3ccc(N4c5ccccc5Oc5ccccc54)cc32)c(C(C)C)c1`, for which the fluorescence lifetime (in c1cc(-c2cccc(-n3c4ccccc4c4ccccc43)c2)cc(-n2c3ccccc3c3ccccc32)c1) is 54 ns.
Compound `CCCCCCCCCCCCN1C(=O)c2c(c3ccc4cc(-c5ccc(Cl)cc5)c(OC)cc4c3c3c2ccc2cc(-c4ccc(Cl)cc4)c(OC)cc23)C1=O` gave a fluorescence lifetime (in ClCCl) of 6.15 ns.
On to `Cc1cc(C)c(C)c(B(c2c(C)c(C)c(N3c4ccccc4Oc4ccccc43)c(C)c2C)c2c(C)c(C)c(N3c4ccccc4Oc4ccccc43)c(C)c2C)c1C`, for which the fluorescence lifetime (in CC(C)(C)c1ccc(-n2c3ccc([Si](c4ccccc4)(c4ccccc4)c4ccccc4)cc3c3cc([Si](c4ccccc4)(c4ccccc4)c4ccccc4)ccc32)cc1) was 2.9 ns.
With `COc1ccc(-c2nc(-c3ccc(-c4nc(-c5ccc(OC)cc5)c(-c5ccc(OC)cc5)[nH]4)cc3)[nH]c2-c2ccc(OC)cc2)cc1`, where the note is “in CC#N”, the fluorescence lifetime is 1.1 ns and 1.24 ns.
Same read-out and setting: in the case of `CC1=CC(/C=C/c2ccc([N+](C)(C)C)cc2)=[N+]2C1=C(c1ccc(I)cc1)c1c(C)cc(/C=C/c3ccc([N+](C)(C)C)cc3)n1[B-]2(F)F` it was 5.1 ns.
For the compound `COC(=O)C(Cc1ccc2oc(-c3ccc(N(C)C)cc3)nc2c1)NC(=O)OC(C)(C)C` (configuration not stated), the fluorescence lifetime is, setting by setting: (in C1CCCCC1) 1.02 ns; (in C1CCOC1) 1.21 ns; (in C1COCCO1) 1.21 ns; (in CC1CCCO1) 1.15 ns; (in CC1COC(=O)O1) 1.41 ns; (in CC#N) 1.32 ns. Besides, the fluorescence lifetime was 1.26 ns (in CC(C)=O); 1.02 ns (in CC(C)CC(C)(C)C); 1.29 ns (in CC(C)CO); 1.3 ns (in CC(C)O); 1.2 ns (in CC(C)OC(C)C); 1.32 ns (in CC(O)CO). In addition, the fluorescence lifetime reads like this: (in CCC(C)CC) 1 ns; (in CCCCC) 1.12 ns; (in CCCCCC) 1.04 ns; (in CCCCCCCCC) 1.08 ns; (in CCCCCCCCCC) 1.09 ns; (in CCCCCCCO) 1.3 ns. Besides, the fluorescence lifetime worked out at 1.32 ns (in CCCCCCO); 1.25 ns (in CCCCCO); 1.29 ns (in CCCCO); 1.35 ns (in CCO); 1.19 ns (in CCOC(C)=O); 1.24 ns (in CCOCC). This compound displayed a fluorescence lifetime (in CN(C)C=O) of 1.28 ns; a fluorescence lifetime (in CO) of 1.26 ns; a fluorescence lifetime (in COCCOC) of 0.88 ns; a fluorescence lifetime (in CS(C)=O) of 1.26 ns; a fluorescence lifetime (in Cc1ccccc1) of 1.04 ns; a fluorescence lifetime (in Cc1ccccc1C) of 1.07 ns. Besides, the fluorescence lifetime by setting is: (in ClC(Cl)Cl) 0.79 ns; (in ClCCl) 1.23 ns; (in NC=O) 1.14 ns; (in OC1CCCCC1) 1.28 ns; (in OCCO) 1.13 ns; (in c1ccccc1) 1.08 ns.
Turning to `F[B-]1(F)n2c(c3cccc4cccc2c43)=Nc2cccc(Cl)[n+]21`, under “in ClCCl”, the fluorescence lifetime was determined as 6.4 ns.
On the same count and under the same terms, under `COc1ccc(-c2c3cc4ccccc4cc3c(-c3ccc(OC)cc3)c3cc4ccccc4cc23)cc1` stands 7.8 ns.
For the compound `CN(C)c1ccc(C(=Cc2ccc(C=O)cc2)c2ccc(N(C)C)cc2)cc1`, the fluorescence lifetime (in C1CCOC1) stood at 7 ns.
On to `CCCCOC(=O)c1cc(Oc2ccc(C(C)(C)C)cc2)c2c3c(Cl)cc4c5c(cc(Cl)c(c6c(Oc7ccc(C(C)(C)C)cc7)cc(C(=O)OCCCC)c1c26)c53)C(=O)N(c1c(C(C)C)cccc1C(C)C)C4=O`, for which the fluorescence lifetime (in Cc1ccccc1) worked out at 6.42 ns.
As for `c1ccc(-c2cc(-c3ccc(N4c5ccccc5C(c5ccccc5)(c5ccccc5)c5ccccc54)cc3)nc(-c3ccccc3)n2)cc1`, the fluorescence lifetime under setting [1] stood at 8.02 ns.
For the compound `CN(C)c1ccc(/C=C/c2cc[n+](CCCCCCCCCCCC[n+]3ccc(/C=C/c4ccc(N(C)C)cc4)cc3)cc2)cc1`, the fluorescence lifetime (in ClC(Cl)Cl) was determined as 0.203 ns.
In the case of `CCN1C(=CC2=C([O-])C(=Cc3sc4ccccc4[n+]3CC)C2=O)Sc2ccccc21`, the fluorescence lifetime was 0.56 ns (in CO) and 4.05 ns (in ClC(Cl)Cl).
Take `FC(F)(F)c1ccc(-n2c(-c3ccc(N(c4ccc(-c5ccc(N(c6ccc(-c7nc8c9ccccc9c9ccccc9c8n7-c7ccc(C(F)(F)F)cc7)cc6)c6ccc(-c7nc8c9ccccc9c9ccccc9c8n7-c7ccc(C(F)(F)F)cc7)cc6)cc5)cc4)c4ccc(-c5nc6c7ccccc7c7ccccc7c6n5-c5ccc(C(F)(F)F)cc5)cc4)cc3)nc3c4ccccc4c4ccccc4c32)cc1`: the fluorescence lifetime (in ClCCl) is 1.61 ns.
`COC(=O)c1[nH]c(-c2ccccc2)c2nnc3c4ccccc4oc3c12` registered a fluorescence lifetime (in ClCCl) of 3.36 ns.
Still for that read-out and setting: under `CCN(CC)c1ccc2cc(-c3nc4c5ccccc5c5ccccc5c4n3-c3ccc(C(C)(C)C)cc3)c(=O)oc2c1` stands 12.6 ns.
Take `COc1cc(N(c2ccccc2)c2ccccc2)ccc1C=C(C#N)C#N`: the fluorescence lifetime turned out to be 0.04 ns (in C1COCCO1); 0.02 ns (in CC#N); 0.05 ns (in CC(C)=O); 0.07 ns (in CCOC(C)=O); 0.03 ns (in CN(C)C=O); 0.02 ns (in CO). Besides, the fluorescence lifetime was found to be 0.03 ns (in Cc1ccccc1), 0.1 ns (in ClC(Cl)Cl) and 0.06 ns (in ClCCl).
For `CC(C)c1cccc(C(C)C)c1N1C(=O)c2cccc3c(Oc4ccccc4)ccc(c23)C1=O`, the fluorescence lifetime (in ClCCl) came out at 4.67 ns.
Where the note is “in O=P(c1ccccc1)(c1ccccc1)c1ccc2oc3ccc(P(=O)(c4ccccc4)c4ccccc4)cc3c2c1”, `c1ccc(-c2nc(-c3ccccc3)nc(-c3ccc(-n4c5ccccc5c5cc6c(cc54)c4ccccc4n6-c4ccccc4)cc3)n2)cc1` registered a fluorescence lifetime of 13.4 ns.
For the compound `N#Cc1cc(N2c3ccccc3Sc3ccccc32)cc(N2c3ccccc3Sc3ccccc32)c1`, under “in Cc1ccccc1”, the fluorescence lifetime amounted to 22.6 ns.
As to `Cc1cc(=O)oc2cc3c4ccc(C(C)(C)C)cc4c4cc(C(C)(C)C)ccc4c3cc12`, for the setting “in ClC(Cl)Cl”, the fluorescence lifetime was 1.3 ns.
`Cc1ccc(-c2ccc(-c3ccc(C)cc3)c(/C(=C(/c3ccccc3)c3cc(-c4ccc(C)cc4)ccc3-c3ccc(C)cc3)c3ccccc3)c2)cc1` returned a fluorescence lifetime (in C1CCOC1) of 8 ns.
Same read-out and setting: under `CC(=O)c1ccc(-c2ccc3c(c2)C(=O)c2cc(-c4ccc(C(C)=O)cc4)ccc2-3)cc1` stands 1.2 ns.
For the compound `CCCCCCCCc1ccc(-c2ccc(/C=C(\C#N)c3ccc(-c4cccc5cccc(-c6ccc(/C(C#N)=C/c7ccc(-c8ccc(CCCCCCCC)cc8)cc7)cc6)c45)cc3)cc2)cc1`, the fluorescence lifetime (in Cc1ccccc1) came to 4.9 ns.
On to `COc1ccc(OC)cc1`, for which the fluorescence lifetime (in C1CCCCC1) stood at 3.8 ns.
On to `CC(C)(C)c1ccc(-c2nnc(-c3c(-n4c5ccccc5c5ccccc54)c(-n4c5ccccc5c5ccccc54)c(-n4c5ccccc5c5ccccc54)c(-n4c5ccccc5c5ccccc54)c3-n3c4ccccc4c4ccccc43)o2)cc1`, for which the fluorescence lifetime (in Cc1ccccc1) was found to be 2.9 ns.
In the case of `O=c1oc2ccccc2cc1-c1ccc(-c2cc3ccccc3oc2=O)cc1`, the fluorescence lifetime (in ClC(Cl)Cl) came to 1.4 ns.
For `C=CCNS(=O)(=O)c1ccc2c(c1)C(=O)/C(=C1\Sc3ccc(S(=O)(=O)NCC=C)cc3C1=O)S2`, the fluorescence lifetime is 8.17 ns (in CN(C)C=O) and 0.06 ns (in CS(C)=O).
`CC(C)(C)c1ccc2c(c1)sc1[n+]2[B-](F)(F)n2c(c3cccc4c(Br)ccc2c43)=N1` gave a fluorescence lifetime (in ClCCl) of 5 ns.
As to `CC1(C)c2ccccc2N(c2ccccc2)c2ccc(S(=O)(=O)c3ccc4c(c3)C(C)(C)c3ccccc3N4c3ccccc3)cc21`, the fluorescence lifetime under setting [1] was 2.06 ns.
`CCN(CC)c1ccc2c(c1)oc(=O)c1c(C)nc3c(c(-c4ccccc4)nn3-c3ccccc3)c12` yielded a fluorescence lifetime (in ClCCl) of 3.51 ns.
For the compound `c1ccc(-c2nc(-c3ccccc3)nc(-c3ccc(-n4c5ccccc5c5cc6c(cc54)C(c4ccccc4)(c4ccccc4)c4ccccc4-6)cc3)n2)cc1`, under setting [1], the fluorescence lifetime was found to be 10.3 ns.
Take `Cc1cc(=O)oc2c3c4c(cc12)CCCN4CCC3`: the fluorescence lifetime runs as follows: (in C1CCCCC1) 2.6 ns; (in CC#N) 3.3 ns; (in CCC#N) 4.26 ns; (in CCCCl) 3.75 ns; (in CCO) 4.5 ns and 4.54 ns; (in O) 5.9 ns. The fluorescence lifetime is 6.88 ns (in OC(C(F)(F)F)C(F)(F)F) and 6.36 ns (in OCC(F)(F)F).
Under “in CC#N”, `COc1ccc(/C=C/c2ccccc2)cc1` gave a fluorescence lifetime of 0.04 ns.
For the compound `CCN(CC)c1ccc2cc(C#N)/c(=N\C(=O)c3ccco3)oc2c1`, where the note is “in ClCCl”, the fluorescence lifetime turned out to be 3 ns.
The compound `FC(F)(F)c1cc2n(n1)[B-]1(c3ccccc3-c3ccccc31)[n+]1ccc3ccccc3c1-2` registered a fluorescence lifetime (in C1CCCCC1) of 1.22 ns, a fluorescence lifetime (in Cc1ccccc1) of 1.22 ns and a fluorescence lifetime (in ClCCl) of 13.7 ns.
With `Clc1ncc(-c2c3ccccc3c(-c3cnc(Cl)nc3)c3ccccc23)cn1`, the fluorescence lifetime was 2.1 ns (in CCO) and 6.2 ns (in ClCCl).
With `C=CCOc1nnc(OCCC(F)(F)C(F)(F)C(F)(F)C(F)(F)C(F)(F)C(F)(F)F)nn1`, the fluorescence lifetime runs as follows: (in ClCCl) 63.8 ns; (in OCC(F)(F)F) 8.7 ns.
`CC1=CC(C)=[N+]2C1=C(c1ccc(-c3ccc(O)cc3)s1)c1c(C)cc(C)n1[B-]2(F)F` showed a fluorescence lifetime (in Cc1ccccc1) of 3.5 ns.
Take `C=Cc1cc(OC)cc(OC)c1`: the fluorescence lifetime runs as follows: (in C1CCCCC1) 3.8 ns; (in CC#N) 6.9 ns.
As to `COC(=O)c1ccc(C2=C3C=CC(C)=[N+]3[B-](F)(F)n3c(C)ccc32)cc1`, the fluorescence lifetime is 0.54 ns (in C1CCCCC1) and 0.82 ns (in Cc1ccccc1).
With `CCOc1ccc(/C=C/c2nc(N3CCOCC3)c3c([n+]2[O-])CCCC3)cc1`, the fluorescence lifetime (in ClCCl) came out at 8.2 ns.
For the compound `CC1=[N+]2C(=C(c3ccccc3)c3ccc(/C=C/c4ccc(C(=C(c5ccccc5)c5ccccc5)c5ccccc5)cc4)n3[B-]2(F)F)C=C1`, the fluorescence lifetime (in C1CCOC1) worked out at 5.43 ns.
